Measurements reported in patent US6262106A, “Adamantanecarboximidamide derivatives and their use as NMDA antagonists” (priority 1998, dated 2001).
Structures can show the parent of a compound that is named as a salt.

Tests used:
[1] = known NMDA antagonists, administration; cited from earlier work
[2] = test system: PCP site of the NMDA receptor (cortical NMDA receptors); test: NMDA receptor binding, [3H]-MK-801 displacement at PCP site, rat cortical membranes; details: for Ratio: (IC50 Cortex / IC50 Cerebellum); for IC50: rat cortex membranes, [3H]-MK-801 5 nM, 10 μM glutamate, 10 μM glycine, 120 min, room temperature
Source text: (§1) The NMDA receptor contains several distinct binding domains that can regulate opening of the cationic channel. The phencyclidine (PCP) site of the NMDA receptor can be radiolabelled with [^3 H]-(+)-5-methyl-10,11-dihydro-5H-dibenzo[a,d]cyclohepten-5,10-imine hydrogen maleate, [^3 H-MK-801]. The following describes the procedure for determining the affinity of compounds for the PCP site in rat cortical or cerebellar membranes.
(§2) Frozen rat cortex or cerebellum, homogenized in 10 volumes of ice-cold 0.32-M. sucrose is centrifuged at 1,000 g for 12 min and the supernatant stored on ice whilst the pellet is resuspended, rehomogenized and recentrifuged twice more. The three final supernatants are pooled and centrifuged at 30,000 g for 40 min at 4° C. to yield P2 pellets. These are resuspended in ice-cold distilled water, and centrifuged at 30,000 g for 50 min at 4° C. Following three further washes in distilled water, the P2 pellets are stored at -20° C. for at least 18 h. On the day of the assay, membrane pellets are thawed at room temperature, resuspended in ice-cold distilled water and centrifuged at 30,000 g for 20 min. The pellets are resuspended in 50-mM tris-HCl (pH:7.4) and recentrifuged twice more before being resuspended in tris-HCl for immediate use in the assay. Binding assays are performed at equilibrium in a total volume of 200 μL, containing [^3 H]-MK-801 (5-nM final conc.), 10-μM glutamate, 10-μM glycine, 160 μL of membrane preparation and additional drugs where appropriate. Non-specific binding is determined using MK-801 (10-μM). The assay is incubated for 120 min at room temperature. The incubation is terminated by rapid filtration through Whatman GF/B filters (pre-soaked in 0.1% PEI solution). The assay tubes and filters are washed five times with 1 mL of ice-cold assay buffer. The filters are placed in poly-Q mini vials with approximately 5 mL of scintillation fluid. The vials are then shaken and left for at least 8 h before being counted on a liquid scintillation counter. To determine the free ligand concentration 3 aliquots (20 μL) of the [^3 H]-MK-801 working solution are also counted. Concentration response data for drugs is analysed using a 4 parameter equation fitted by non-linear regression. This yields the half maximally effective drug concentration (IC50) and Hill coefficient.

[3] = target: PCP site of the NMDA receptor (cerebellar NMDA receptors); test: NMDA receptor binding, [3H]-MK-801 displacement at PCP site, rat cerebellar membranes; details: rat cerebellum membranes; [3H]-MK-801 5 nM; 10 μM glutamate, 10 μM glycine; 120 min, room temperature
Source text: as §1, §2

SMILES | side effects [1] | Ratio [2] | IC50 [2] [µM] | IC50 [3] [µM]
CCc1cccc(N(C)C(N)=Nc2cccc3ccccc23)c1 [Cerestat] | perceptual and cognitive disturbances of a kind that resemble naturally-occurring psychotic states | – | – | –
C[C@]12N[C@H](Cc3ccccc31)c1ccccc12 [Dizocilpine] | perceptual and cognitive disturbances of a kind that resemble naturally-occurring psychotic states | – | – | –
Cc1ccc(C2(C(=N)N)C3CC4CC(C3)CC2C4)cc1 (stereo not shown) [Example 4, 2-(4-Methylphenyl)-2-adamantanecarboximidamide hydrochloride] | – | 1.9 | 105 | 56
Cc1ccccc1C1(C(=N)N)C2CC3CC(C2)CC1C3.Cl (stereo not shown) [Example 5, 2-(2-Methylphenyl)-2-adamantanecarboximidamide hydrochloride] | – | 1.7 | 53 | 31
N=C(N)C1(c2ccc(F)cc2)C2CC3CC(C2)CC1C3 (stereo not shown) [Example 6, 2-(4-Fluorophenyl)-2-adamantanecarboximidamide hydrochloride] | – | 1.8 | 44 | 25
N=C(N)C1(c2ccc(Cl)cc2)C2CC3CC(C2)CC1C3 (stereo not shown) [Example 7, 2-(4-Chlorophenyl)-2-adamantanecarboximidamide hydrochloride] | – | 1.7 | 59 | 34
COc1ccc(C2(C(=N)N)C3CC4CC(C3)CC2C4)cc1 (stereo not shown) [Example 8, 2-(4-Methoxyphenyl)-2-adamantanecarboximidamide hydrochloride] | – | 2.0 | 45 | 22
CNC1(c2ccccc2Cl)CCCCC1=O (stereo not shown) [Ketamine] | perceptual and cognitive disturbances of a kind that resemble naturally-occurring psychotic states | – | – | –
c1ccc(C2(N3CCCCC3)CCCCC2)cc1 [PCP, phencyclidine] | perceptual and cognitive disturbances of a kind that resemble naturally-occurring psychotic states | – | – | –
